How the values were obtained:
[1] = in vivo; conditions: rat
[2] = tested on: Freund's adjuvant arthritis; assay: Freund's adjuvant arthritis test in rats (Perper's design); conditions: 0.04 LD50, N = 10; for Δ Volume (ml) (not injected paw; opposite site), x- ± s.e.: arthritic controls 1.68 ± 0.14; for ΔVolume (ml) (injected paw), x- ± s.e.: arthritic controls 3.21 ± 0.27
[3] = tested on: Granuloma pouch; assay: "Granuloma pouch" test (Selye), antiinflammatory activity in the rat; conditions: 0.06 LD50, N = 10; for Exudate volume (ml), x- ± s.e.: controls 13.2 ± 2.19
[4] = 80 mg/Kg/os daily, n.s. = not significant

## CC(=O)Oc1ccccc1C(=O)O [Acetylsalicylic acid]
[1]; ip
  LD50: 500 mg/kg
[1]; po
  LD50: 1500 mg/kg

## CCCCC1C(=O)N(c2ccccc2)N(c2ccccc2)C1=O [Phenylbutazone]
[2]; 50 mg/Kg/os daily
  Δ Volume (not injected paw; opposite site), % inhib.: 0%
  ΔVolume (injected paw), % inhib.: 8%
  Δ Volume (ml) (not injected paw; opposite site), x- ± s.e.: 1.74 ± 0.13 mL
  ΔVolume (ml) (injected paw), x- ± s.e.: 2.97 ± 0.14 mL
[3]; 80 mg/Kg/os daily
  Pouch wall Fresh weight, % inhib.: 27%
  Exudate volume (ml), x- ± s.e.: 9.70 ± 1.65 mL
[3]; 80 mg/Kg/os daily, controls 5.10 ± 0.53
  Pouch wall Fresh weight (g), x- ± s.e.: 3.72 ± 0.28 g
[3]; [4]
  Exudate volume, % inhib.: 28%
  Pouch wall Fresh weight, % inhib.: 20%

## C[S+](C)CCOCC[S+](C)C [Z.964, 2,2'-bis(dimethylsulfoniumethyl)ether diiodide]
[1]; ip
  LD50: 1150 mg/kg
[1]; po
  LD50: > 5000 mg/kg
[2]; 200 mg/Kg/os daily
  Δ Volume (not injected paw; opposite site), % inhib.: 63%
  ΔVolume (injected paw), % inhib.: 32%
  Δ Volume (ml) (not injected paw; opposite site), x- ± s.e.: 0.61 ± 0.13 mL
  ΔVolume (ml) (injected paw), x- ± s.e.: 2.17 ± 0.24 mL
[3]; 300 mg/Kg/os daily
  Pouch wall Fresh weight, % inhib.: 48%
  Exudate volume (ml), x- ± s.e.: 6.15 ± 0.69 mL
[3]; 300 mg/Kg/os daily, * P<0.05
  Exudate volume, % inhib.: 53%
  Pouch wall Fresh weight, % inhib.: 38%
[3]; 300 mg/Kg/os daily, controls 5.10 ± 0.53
  Pouch wall Fresh weight (g), x- ± s.e.: 2.70 ± 0.27 g
[3]; 300 mg/Kg/os daily, controls 1126.7, s.e. 156.7
  Pouch wall Fresh weight (g), x- ± s.e.: 708.9 ± 79.0

Reference: patent US4056634A, “Dimercaptoethyl ether sulfonium compounds and use as antiinflammatory and antirheumatic agents” (Whitefin Holding S.A., priority 1975, dated 1977)
